Data from US20080026073A1, “METHOD AND COMPOSITION FOR LITHIUM ADDITIVE IN TREATMENT OF GLUTAMATE TOXICITY” (priority 2006, published 2008).

Test system: retinal ganglion cells
Assay: NMDA-induced glutamate toxicity mouse model for glaucoma: count of surviving retinal ganglion cells after oral feeding
Format: in vivo, mice
Details: for survival efficacy (percent of retinal ganglion cells that survive relative to no treatment): Example 3, FIG. 3, separate mouse pools

SMILES: O=C([O-])c1cc(=O)[nH]c(=O)[nH]1.[Li+] [Lithium, lithium orotate]
- increase in the surviving ganglion cells (Example 1, FIG. 1, mice, oral ingestion, human equivalent dosage Lithium 5.8 mg lithium orotate per day, St. Johns Wort 2-4 grams per day): about 15%
- survival rate of retinal ganglion cells (Example 2, FIG. 2, mice, gavage eight days, intravitreal NMDA 150 mM 0.5 microliter after six days, Li orotate 63 μg/day, herb 32 mg per mouse per day): about 15%
- survival efficacy (percent of retinal ganglion cells that survive relative to no treatment) (1/5th the dosage, human equivalent 1.16 mg lithium orotate): approximately 13%
- survival efficacy (percent of retinal ganglion cells that survive relative to no treatment) (5 times the dosage, human equivalent 29 mg lithium orotate): approximately 8%
